Experimental data from US20220323468A1, “REDUCED NICOTINAMIDERIBOSIDES FOR THE TREATMENT/PREVENTION OF LIVER DISEASE” (SOCIETE DES PRODUITS NESTLE S.A., priority 2019, published 2022).
“Also recorded” adds a separate entry of the source. Where a name gives a salt, the structure may show the parent alone. Read-outs that look alike come from different tables or passages of the source.

Experiments:
[1] = Stability in FBS supplemented media
Source text: (§1) NR degradation to NAM has been proposed as a limitation for its pharmacological efficacy. To evaluate whether NRH was also susceptible to degradation to NAM, we spiked NRH or NR in isolated mouse plasma. […] We also tested the stability of NRH in other matrixes.

[2] = Hepatic NAD+ levels after oral administration in mice; type: in vivo; details: compared with NR
Description: (§2) 8 week-old C57BI/6NTac mice were orally gavaged with either saline (as vehicle), NR (500 mg/kg) or NRH (500 mg/kg). After 1 hour, liver, skeletal muscle and kidney NAD^+ levels were evaluated. All results are expressed as mean+/− SEM of n=5 mice per group. * indicates statistical difference at p<0.05 vs. vs. saline-treated mice. # indicates statistical difference at p<0.05 vs. NR treated mice.
(§3) Oral administration of NRH led to very similar results to those observed after IP administration. […] NRH was detectable in plasma 1 h after oral administration. In contrast, NR levels were undetectable at 1 h after NR administration.

Stability in water = type: physicochemical; details: pH=7, at room temperature, 48 h
Source text: as §1

3T3 fibroblasts = experiment: NAD+ levels in 3T3 fibroblasts after NRH treatment; type: cell-based
AML12 hepatocytes = experiment: Intracellular NAD+ levels in AML12 hepatocytes (dose-response and time course); type: cell-based
Description: Even at such relatively low dose, NRH achieved similar increases in intracellular NAD+ levels to those reached with NR at 50-fold higher concentrations. NRH achieved maximal effects on NAD+ synthesis around the millimolar range, managing to increase intracellular NAD+ levels by more than 10-fold.
NRH actions were also extremely fast (FIG. 3), as significant increases in NAD+ levels were observed within 5 minutes after NRH treatment.

[3] = set-up: species or system mice; details: mouse, in vivo, 250 mg/kg
Description: 8 week-old C57Bl/6NTac mice were orally gavaged with either saline (as vehicle), and NRH (250 mg/kg). After 2 hours, liver, skeletal muscle and kidney NRH levels were evaluated. All results are expressed as mean+/− SEM of n=4 mice per group, as areas under the signal by LC-MS analysis, corrected by total protein amount of tissue.
(§4) Levels of NRH and other NAD-related metabolites in biological samples were obtained by using a cold liquid-liquid extraction using a mixture of methanol:water:chloroform in 5:3:5 (v/v), from which the polar phase was recovered for hydrophilic interaction ultra-high performance liquid chromatography mass spectrometry (UHPLC-MS) analysis. The UHPLC consisted of a binary pump, a cooled autosampler, and a column oven (DIONEX Ultimate 3000 UHPLC+ Focused, Thermo Scientific), connected to a triple quadrupole spectrometer (TSQ Vantage, Thermo Scientific) equipped with a heated electrospray ionisation (H-ESI) source. Of each sample, 2 μL were injected into the analytical column (2.1 mm×150 mm, 5 μm pore size, 200 Å HILICON iHILIC®-Fusion(P)), guarded by a pre-column (2.1 mm×20 mm, 200 Å HILICON iHILIC®-Fusion(P) Guard Kit) operating at 35° C. The mobile phase (10 mM ammonium acetate at pH 9, A, and acetonitrile, B) was pumped at 0.25 mL/min flow rate over a linear gradient of decreasing organic solvent (0.5-16 min, 90-25% B), followed by re-equilibration for a total run time of 30 min. The MS operated in positive mode at 3500 V with multiple reaction monitoring (MRM). The software Xcalibur v4.1.31.9 (Thermo Scientific) was used for instrument control, data acquisition and processing. Retention time and mass detection was confirmed by authentic standards.

[4] = Stability in isolated mouse plasma; type: in vitro ADME; details: for compound levels in plasma / generation of NAM in plasma: spiked in isolated mouse plasma, 2 h of incubation
Source text: as §1

[5] = Tissue NAD+ levels after IP injection in mice; type: in vivo; details: IP 500 mg/kg, after 1 h
Description: (§5) The above results prompted us to test whether NRH could act as an effective NAD+ precursor in vivo. For this, we first intraperitoneally (IP) injected mice with either NR or NRH (500 mg/kg).

INS1-cells = experiment: NAD+ levels in INS1-cells after NRH treatment; type: cell-based
[6] = tested on: intracellular NRH, NMNH, NR and NMN; experiment: Intracellular NAD+ related metabolites after treatment (UHPLC-MS); type: cell-based
Source text: as §4, with “standards. […]” for “standards.”

adenosine kinase (AK) = target: T1, adenosine kinase (AK) (Mus musculus, UniProt P55264); experiment: NRH-induced NAD+ synthesis with adenosine kinase inhibitors; type: cell-based; set-up: effect of AK inhibitor on NRH action (NAD+ synthesis): dose or concentration left out as unconfirmed; details: for effect of AK inhibitor on NRH action (NAD+ synthesis): AML12 cells, inhibitor (5-IT) 1 hour prior to NRH, NAD+ measured 1 hour later
T1 construct: endogenous in cells; host or cells: AML12 cells
T1 sequence (P55264 whole entry): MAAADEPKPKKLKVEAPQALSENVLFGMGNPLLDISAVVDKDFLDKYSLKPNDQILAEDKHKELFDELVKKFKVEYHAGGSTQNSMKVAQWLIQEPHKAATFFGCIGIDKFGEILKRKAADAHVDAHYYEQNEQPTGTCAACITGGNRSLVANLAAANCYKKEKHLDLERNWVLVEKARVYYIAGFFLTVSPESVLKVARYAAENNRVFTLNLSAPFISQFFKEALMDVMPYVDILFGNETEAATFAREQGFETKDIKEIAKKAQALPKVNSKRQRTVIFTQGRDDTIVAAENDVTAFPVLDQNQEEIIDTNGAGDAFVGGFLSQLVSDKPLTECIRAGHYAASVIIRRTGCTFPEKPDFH
Description: AML12 cells were treated with an adenosine kinase inhibitor (5-IT; […]) for 1 hour prior to NRH treatment at the doses indicated. Then, 1 hour later, acidic extracts were obtained to measure NAD^+ levels.

[7] = Intrahepatic and hepatic mitochondrial NAD+ after IP injection in mice; type: in vivo; details: NR 500 mg/kg or equimolar amounts, 1 hour later; for hepatic mitochondrial NAD+ levels: isolated liver mitochondria
Description: 10 week old male mice were fasted for 2 hours prior to intraperitoneal injection (IP) with saline as control/vehicle, nicotinamide riboside (NR; 500 mg/kg) or equimolar amounts of dihydronicotinamide riboside (NRH) or nicotinamide (NAM). Then, 1 hour later, mice were euthanized and a piece of liver was snap frozen while another piece was used for mitochondrial isolation following a published procedure (Frezza et al., 2007; Nature Protocols). The piece of snap frozen liver was weighted and submitted to acidic extraction to evaluate NAD+ levels through enzymatic methods. For isolated mitochondria, protein was quantified and 200 micrograms of protein were used for acidic extraction and NAD+ measurement through enzymatic methods. […] All results are mean+/− SEM of n=4 animals per group. * indicates statistical difference at p<0.05 vs. control/vehicle group.

[8] = Plasma NRH, NR and NAM after oral administration in mice; type: in vivo
Description: as §2, §4, §3

[9] = Circulating NAM, NRH and NR after IP injection in mice; type: in vivo; details: for NAM levels in circulation: mice, IP 500 mg/kg
Source text: as §4, §5

C2C12 myotubes = experiment: NAD+ levels in C2C12 myotubes after NRH treatment; type: cell-based
[10] = tested on: equilibrative nucleoside transporters (ENTs); experiment: NRH-induced NAD+ synthesis under ENT blockage; type: cell-based; details: in the presence of S-(4-nitrobenzyl)-6-thioinosine (NBTI)
Source text: In order to understand the exact path by which NRH synthesizes NAD+, we initially evaluated whether NRH, could be transported into the cell by equilibrative nucleoside transporters (ENTs).

[11] = tested on: primary hepatocytes from NRK1 knockout (NRK1KO) mice; experiment: NAD+ levels in primary hepatocytes from control or NRK1 knockout mice; type: cell-based; details: after 1 hour of treatment
Source text: (§6) The action of NRH was also NAMPT-independent, based on experiments using FK866, a NAMPT inhibitor. If NRH led to NAD+ synthesis via the formation of NMNH, this hypothetical path would require the phosphorylation of NRH into NMNH. Given the essential and rate-limiting role of NRK1 in NR phosphorylation, we wondered whether the ability of NRH to boost NAD+ levels was NRK1 dependent. To answer this question, we evaluated NRH action in primary hepatocytes from either control or NRK1 knockout (NRK1KO) mice. […] Further, they rule out the possibility that NRH-induced NAD+ […] is driven by NRH oxidation into NR.

NAMPT = target: T2, NAMPT (Mus musculus, UniProt Q99KQ4); experiment: NRH-induced NAD+ synthesis with NAMPT inhibitor FK866; type: cell-based; details: experiments using FK866, a NAMPT inhibitor
T2 construct: endogenous in cells
T2 sequence (Q99KQ4 whole entry): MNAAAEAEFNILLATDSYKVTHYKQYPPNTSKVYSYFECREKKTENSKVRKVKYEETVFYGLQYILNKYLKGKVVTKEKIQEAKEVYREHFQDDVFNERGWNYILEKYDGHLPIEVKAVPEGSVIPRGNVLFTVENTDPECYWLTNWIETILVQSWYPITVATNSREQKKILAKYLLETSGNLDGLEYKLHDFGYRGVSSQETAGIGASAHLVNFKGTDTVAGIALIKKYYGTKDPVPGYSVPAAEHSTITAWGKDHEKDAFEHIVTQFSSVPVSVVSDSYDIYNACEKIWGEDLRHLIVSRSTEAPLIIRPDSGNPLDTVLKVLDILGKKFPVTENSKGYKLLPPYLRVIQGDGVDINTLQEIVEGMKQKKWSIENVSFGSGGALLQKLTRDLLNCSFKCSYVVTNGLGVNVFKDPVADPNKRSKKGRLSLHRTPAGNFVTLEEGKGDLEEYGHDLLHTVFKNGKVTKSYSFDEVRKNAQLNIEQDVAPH
Source text: as §6

NMNAT = experiment: NRH-induced NAD+ synthesis with NMNAT inhibitor gallotannin; type: cell-based
Source text: As a follow-up step, NMNAT enzymes could catalyze the transition from NMNH to NADH.

With `NC(=O)C1=CN([C@@H]2O[C@H](CO)[C@@H](O)[C@H]2O)C=CC1` [NRH] the “degradation to NAM” value [1] was “did not degrade to NAM”, the “effect on hepatic NAD+ levels” value [2] was “more potent effect on hepatic NAD+ levels than NR” and the stability in water (Stability in water) was “certified NRH stability”. The “NAD+ levels” value (3T3 fibroblasts) was “highly elevated”, the “time to significant increase in NAD+ levels after treatment” value (AML12 hepatocytes; AML12 hepatocytes, FIG. 3) was at most 5 min and the “ability to increase intracellular NAD+” value (AML12 hepatocytes; AML12 hepatocytes, compared with NR) was “superior to that of NR”. The “concentration at which NAD+ levels are significantly increased” value (AML12 hepatocytes; AML12 hepatocytes, dose-response, FIG. 2) was 10 µM, the “fold higher NR concentration needed to reach similar increases in intracellular NAD+” value (AML12 hepatocytes; NRH at 10 μM versus NR) was 50 fold and the “maximal increase of intracellular NAD+ levels” value (AML12 hepatocytes; around the millimolar range) was “more than 10 fold”. The NRH in kidney [3] was “found intact, in high levels”, the NRH in liver [3] was “found intact, in high levels” and the NRH in muscle [3] was “found intact, in high levels”. For the same molecule, the “NR production in plasma” value ([4]; incubation in isolated plasma) was “did not lead to NR production”, the “compound levels in plasma” value [4] was “remained stable” and the “generation of NAM in plasma” value [4] was “NAM was not generated; also recorded: did not significantly alter NAM levels”. For the same molecule, the “NAD+ levels in kidney” value [5] was “increased NAD+ levels”, the “NAD+ levels in liver” value [5] was “increased NAD+ levels” and the “NAD+ levels in muscle” value [5] was “increased NAD+ levels”. For the same molecule, the “NAD+ levels” value (INS1-cells) was “highly elevated”, the “intracellular detection of NRH and NMNH” value ([6]; 5 minutes after treatment) was “could be detected intracellularly” and the “intracellular NR and NMN” value ([6]; after treatment, compared with NR) was “increase in intracellular NR and NMN, greater than that triggered by NR itself”. The “generation of NMNH, NADH and NAD+ from NRH” value (adenosine kinase (AK); metabolomic analyses, upon inhibition of AK) was “fully blunted”, the “intrahepatic NAD+” value [7] was “increase intrahepatic NAD+” and the “hepatic mitochondrial NAD+ levels” value [7] was “only NRH increases mitochondrial NAD+ levels”. The “NRH concentration in plasma” value ([8]; mice, after oral gavage) was 11.16 ± 1.74 µM, the “administered compound in plasma” value ([8]; mouse, in vivo, po) was “detectable” and the “NAM levels in circulation” value [9] was “only a very mild increase”. For the same molecule, the NR in circulation ([9]; mouse, in vivo, ip) was “much higher levels than those detected after NR injection itself”, the NRH in circulation ([9]; mouse, in vivo, ip) was “detectable in circulation” and the “NAD+ levels” value (C2C12 myotubes) was “highly elevated”. The “capacity as extracellular NAD+ precursor under ENT blockage” value [10] was “largely lost its capacity as an extracellular NAD+ precursor”, the “NAD+ levels in NRK1KO derived primary hepatocytes” value [11] was “not affected by NRK1 deficiency” and the “dependence of NAD+ increasing action on NAMPT” value (NAMPT) was “NAMPT-independent”.
In the case of `O=C(OC[C@H]1O[C@@H](OC(=O)c2cc(O)c(O)c(OC(=O)c3cc(O)c(O)c(O)c3)c2)[C@H](OC(=O)c2cc(O)c(O)c(OC(=O)c3cc(O)c(O)c(O)c3)c2)[C@@H](OC(=O)c2cc(O)c(O)c(OC(=O)c3cc(O)c(O)c(O)c3)c2)[C@@H]1OC(=O)c1cc(O)c(O)c(OC(=O)c2cc(O)c(O)c(O)c2)c1)c1cc(O)c(O)c(OC(=O)c2cc(O)c(O)c(O)c2)c1` [gallotannin], the “effect of NMNAT inhibitor on NAD+ synthesis after NRH treatment” value (NMNAT) is reported as “largely compromised NAD+ synthesis”, the “effect of NMNAT inhibitor on NRH action” value (NMNAT; NRH at maximal doses (0.5 mM)) is reported as “part of the NRH action remained” and the “effect of NMNAT inhibitor on NRH action” value (NMNAT; NRH at submaximal doses) is reported as “totally blocked”.
For `Nc1ncnc2c1c(I)cn2[C@@H]1O[C@H](CO)[C@@H](O)[C@H]1O` [5-IT, 5-iodotubercidin], the “effect of AK inhibitor on NRH action (NAD+ synthesis)” value (adenosine kinase (AK)) was “fully ablated the action of NRH” and the “formation of NR and NMN after NRH treatment” value (adenosine kinase (AK); with 5-IT treatment) was “prevented the formation of NR and NMN”.
For `Nc1ncnc2nc(-c3ccc(N4CCOCC4)nc3)cc(-c3cccc(Br)c3)c12` [ABT-702], the “effect of AK inhibitor on NRH action (NAD+ synthesis)” value (adenosine kinase (AK)) was “confirmed”.
With `NC(=O)c1cccnc1` [NAM, nicotinamide] the “intrahepatic NAD+” value [7] was “increase intrahepatic NAD+” and the “hepatic mitochondrial NAD+ levels” value [7] was “only NRH increases mitochondrial NAD+ levels”.
For `NC(=O)c1ccc[n+]([C@@H]2O[C@H](CO)[C@H](O)C2O)c1` (stereo partly drawn) [NR, 1-b-D-ribofuranosyl-3-pyridinecarboxamide salt, reference compound], the “degradation to NAM” value ([1]; FBS supplemented media) was “as occurs with NR”, the “compound levels in plasma” value [4] was “decayed” and the “generation of NAM in plasma” value [4] was “increase in NAM”. For the same molecule, the “NAD+ levels in kidney” value [5] was “increased NAD+ levels”, the “NAD+ levels in liver” value [5] was “increased NAD+ levels” and the “NAD+ levels in muscle” value [5] was “increased NAD+ levels”. The “intrahepatic NAD+” value [7] was “increase intrahepatic NAD+”, the “hepatic mitochondrial NAD+ levels” value [7] was “only NRH increases mitochondrial NAD+ levels” and the “circulating NAM relative to that after NRH treatment” value ([8]; C57BI/6NTac, mouse, in vivo, po, 1 h) was about 4 fold. For the same molecule, the “administered compound in plasma” value ([8]; mouse, in vivo, po) was “undetectable”, the “circulating NAM” value ([8]; mouse, in vivo, po) was “large increases” and the “NAM levels in circulation” value [9] was “highly increased”. The “NAD+ levels in NRK1KO derived primary hepatocytes” value [11] was “failed to increase NAD+ levels”.
